Measured values from PMC8136953 (Veterinary Medicine and Science, 2020).
Values joined by “and” are separate entries in the source; they are usually repeats but may differ in a detail not shown here. Identical values can stand only once. Like-named read-outs stand apart in the source and are kept apart here.

Columns and labels:
[1] = Plasma pharmacokinetics of FLO after a single dietary administration
Description: Apparently healthy European seabass averaging about 100 ± 12 g were obtained from a local fish farm (Selonda aquaculture S.A) and distributed in two cages (1 m^3) located within a 50 m^3 cement tank (85 fish/cage). Water was supplied by open flow and oxygen was provided continuously by bubbling air. The water temperature and salinity were 24 ± 1°C and 38‰, respectively. Fish were allowed to acclimate for 7 days prior to experimentation and fed a drug‐free commercial diet at 1.5% body weight (B.W.).
During the trial, the experimental diet was stored at 4°C and was left to obtain ambient temperature before delivery.
Sampling of fish was performed at predetermined time points during and post treatment (Figure 1) after anesthetization with clove oil (40 mg/L). […] At each sampling point, 10 fish were killed by a blow to the head and tissue samples were obtained. Approximately, 2 ml of blood was drawn with a needle (Microlance 23G 11/4 0.6 × 30; Becton Dickinson, Zaragoza, Spain) from the caudal vein at selected time points during treatment and transferred into heparinised test tubes. Plasma was separated from blood samples by centrifugation at 20,160 g for 10 min at 4°C. Moreover for the withdrawal study, muscle plus skin (approximately 5 g) were taken from the anterior dorsal region on days 1, 2, 3, 4 and 6 post treatment. All prepared tissue samples were immediately frozen and stored at −20°C until analysis.
Briefly, 1 ml of plasma sample was placed in a 10 ml polypropylene centrifuge tube with 500 μl of acetonitrile:water (35:65, v/v). […] The homogenised samples were centrifuged (8,000 g for 10 min) and the supernatant was transferred to a 15 ml polypropylene centrifuge tube. The extraction step was repeated twice. The combined extract was then evaporated to dryness at 40°C under a gentle stream of nitrogen. The residue was reconstituted by 1 ml of mobile phase solution. Five milliliter of hexane were added into the tube and after mixing it was subjected to centrifugation for 5 min at 2,150 g prior to the removal of the hexane layer. The afore‐mentioned de‐fatting step was also repeated twice. The water‐based phase was filtered using 0.22 μm nylon filter and the filtrate (200 μl) was then analysed by HPLC.
The column temperature was maintained at 30°C and the injected volume was 200 μl. As a mobile phase, (A) an aqueous solution of NaH2PO4 (0.01 M) containing 0.005 M sodium dodecyl sulphate and 0.1% triethylamine (pH 4.8 adjusted with 85% phosphoric acid) and (B) acetonitrile were used (A/B, 65:35, v/v). The flow rate was 1.0 ml/min.
The area under the concentration–time curve (AUC0‐∞) was determined using trapezoidal method and was extrapolated to infinity.

[2] = cited from earlier work; for Primary route of excretion of FLO and its metabolites: single oral dose 10 mg/kg fish, ref Feng et al. (2008)
[3] = cited from earlier work
[4] = design: method as in Huang et al. (2019); conditions: 0‰, 50 g, ref Huang et al. (2019), cited from earlier work; for C max / T max / t 1/2b: SO‐FA, 25 mg/kg fish
[5] = design: method as in Wrzesinski et al. (2006); conditions: 0‰, MO, 10 × 12d mg/kg fish, 916 g, 18–20 °C; ref Wrzesinski et al. (2006); cited from earlier work
[6] = design: method as in Park et al. (2006); conditions: 0‰, SO, 20 mg/kg fish, 280 g, 24 °C; ref Park et al. (2006); cited from earlier work
[7] = cited from earlier work; remark: listed apart in the source
[8] = design: method as in de Ocenda et al. (2017); conditions: 35‰, SO‐FA, 100 mg/kg fish, 101 g, 16 °C; ref de Ocenda et al. (2017); cited from earlier work
[9] = design: method as in Chang et al. (2019); conditions: 31‰, SO‐FA, 30 mg/kg fish, 615 g, ref Chang et al. (2019), cited from earlier work
[10] = design: method as in Kverme et al. (2019); conditions: 34‰, SO‐FA, 10 mg/kg fish, 114 g, 12 °C; ref Kverme et al. (2019); cited from earlier work
[11] = European seabass (Dicentrarchus labrax), plasma, oral, 10 mg/kg
[12] = 0‰, SO‐FA, 10 mg/kg fish, 98 g, 22 °C, ref Feng and Jia (2009)
[13] = 0‰, MO, 10 × 10d mg/kg fish, 444–474 g, 25–30 °C, ref Kosoff et al. (2009)
[14] = 0‰, MO, 15 × 10d mg/kg fish, 100–500 g, 25 °C, ref Bowser et al. (2009)
[15] = 0‰, SO‐FA, 15 mg/kg fish, 500–700 g, 24 °C, ref Rairat et al. (2019)
[16] = 0‰, SO‐FA, 15 mg/kg fish, 500–700 g, 28 °C, ref Rairat et al. (2019)
[17] = 0‰, SO‐FA, 15 mg/kg fish, 500–700 g, 28 °C, ref Rairat et al. (2020)
[18] = 0‰, SO‐FA, 15 mg/kg fish, 500–700 g, 32 °C, ref Rairat et al. (2019)
[19] = 2‰, SO‐FA, 15 mg/kg fish, 500–700 g, 28 °C, ref Rairat et al. (2020)
[20] = 4‰, SO‐FA, 15 mg/kg fish, 500–700 g, 28 °C, ref Rairat et al. (2020)
[21] = 8‰, SO‐FA, 15 mg/kg fish, 500–700 g, 28 °C, ref Rairat et al. (2020)
[22] = 15‰, SO‐FA, 15 mg/kg fish, 500–700 g, 28 °C, ref Rairat et al. (2020)
[23] = 30‰, SO‐FA, 10 mg/kg fish, 194 g, 11 °C, ref Martinsen et al. (1993)

CS(=O)(=O)c1ccc([C@@H](O)[C@@H](CF)NC(=O)C(Cl)Cl)cc1 [FLO, florfenicol]
Tmax [1, 11]: 4 h
concentration at 24 hr [1, 11]: 550 ng/mL
AUC ([1]; European seabass (Dicentrarchus labrax), plasma, po, 10 mg/kg): 34700 ng·h/mL
half-life ([1]; in vivo, po, 10 mg/kg): 13 h
AUC ([1]; plasma, po, 10 mg/kg): 34700 ng·h/mL
Maximum plasma concentration ([1]; single dietary administration 10 mg/kg, plasma, 24°C): 1.6 µg/mL and 1.64 µg/mL
C max [2, 12]: 4500 ng/mL
T max [2, 12]: 12 h
t 1/2b [2, 12]: 10.0 h
Primary route of excretion of FLO and its metabolites ([2]; freshwater hybrid tilapia): the bile duct
Primary route of excretion of FLO and its metabolites ([2]; seawater tilapia): mostly the gills
C max [3, 13]: 6500 to 6700 ng/mL
WT [3, 13]: 98 to 146 h
C max [3, 14]: 7100 to 15200 ng/mL
WT [3, 14]: >288 h
t 1/2b [3, 14]: 1.2 to 2.2 h
C max [3, 15]: 23100 ng/mL
T max [3, 15]: 1.4 h
t 1/2b [3, 15]: 12.4 h
C max [3, 16]: 16700 ng/mL
T max [3, 16]: 1.2 h
t 1/2b [3, 16]: 9.5 h
C max [3, 17]: 24000 ng/mL
T max [3, 17]: 0.8 h
t 1/2b [3, 17]: 11.3 h
C max [3, 18]: 16700 ng/mL
T max [3, 18]: 0.8 h
t 1/2b [3, 18]: 7.3 h
t 1/2b ([3]; 2‰, SO‐FA, 15 mg/kg fish, 500–700 g, 28 °C, ref Rairat et al. (2020), 15 mg/kg): 10.7 h
C max [3, 19]: 21600 ng/mL
T max [3, 19]: 0.9 h
C max [3, 20]: 21800 ng/mL
T max [3, 20]: 0.9 h
t 1/2b [3, 20]: 10.6 h
C max [3, 21]: 24400 ng/mL
T max [3, 21]: 0.9 h
t 1/2b [3, 21]: 10.2 h
t 1/2b ([3]; 15‰, SO‐FA, 15 mg/kg fish, 500–700 g, 28 °C, ref Rairat et al. (2020), 15 mg/kg): 8.9 h
C max [3, 22]: 22700 ng/mL
T max [3, 22]: 1.0 h
WT ([4]; MO‐FA, 25 × 3d mg/kg fish, 28 °C): 198 h
C max ([4]; 18 °C): 5900 ng/mL
T max ([4]; 18 °C): 6.0 h
t 1/2b ([4]; 18 °C): 26.8 h
C max ([4]; 28 °C): 6200 ng/mL
T max ([4]; 28 °C): 2.8 h
t 1/2b ([4]; 28 °C): 16.1 h
WT [5]: 96 h
C max [6]: 9600 ng/mL
T max [6]: 8 h
C max [7, 23]: 4000 ng/mL
T max [7, 23]: 10.3 h
C max ([7]; 35‰, MO, 10 × 10d mg/kg fish, 497 g, 10 °C, ref Horsberg et al. (1996)): 8560 ng/mL
C max ([7]; 35‰, SO‐FA, 10 mg/kg fish, 460 g, 10 °C, ref Horsberg et al. (1996)): 9100 ng/mL
C max [8]: 55400 ng/mL
T max [8]: 12 h
C max ([9]; 15 °C): 9100 ng/mL
t 1/2b ([9]; 15 °C): 14.3 h
T max ([9]; 15–20 °C): 12 h
C max ([9]; 20 °C): 12200 ng/mL
t 1/2b ([9]; 20 °C): 9.7 h
C max [10]: 3600 ng/mL
T max [10]: 21.2 h
t 1/2b [10]: 21.2 h
